Holding throughout (format): biochemical
Assay [1] has as its target SIK1 (Homo sapiens, UniProt P57059). The assay can be described thus: Enzymatic activity assay SIK1, RapidFire mass spectrometry (phosphorylation of CHK-peptide). The conditions noted are these: RapidFire MS, inhibition of SIK1; read-out: SIK1 RF IC50. In short, it runs like this: (§1)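 Compounds (12-point, 3-fold, generally 30 μM to 170 pM) were pre-incubated 30 min at ambient temperature with SIK1 (5 nM), SIK2 (0.5 nM) or SIK3 (1.5 nM) in HEPES pH 7.0/magnesium acetate buffer. CHK-peptide (10 μM solution) and ATP (100 μM solution) were then added for 45 min before formic acid quench.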

For assay [2], the target named is SIK2 (Homo sapiens, UniProt Q9H0K1). The assay can be described thus: Enzymatic activity assay SIK2, RapidFire mass spectrometry (phosphorylation of CHK-peptide). The conditions noted are these: RapidFire MS, inhibition of SIK2; read-out: SIK2 RF IC50. In short, it runs like this:
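SIK2 (0.5 nM) in pH 7.0 HEPES buffer with 10 mM Mg acetate phosphorylates CHK-peptide (10 μM solution) with 100 μM ATP solution, 45 min ambient, then formic acid quench.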

For assay [3], the target named is SIK3 (Homo sapiens, UniProt Q9Y2K2). The assay can be described thus: Enzymatic activity assay SIK3, RapidFire mass spectrometry (phosphorylation of CHK-peptide). Conditions: RapidFire MS, inhibition of SIK3; read-out: SIK3 RF IC50. A digest of the protocol: as §1

IC50 data for 23 compounds are collected here from patent US20240383875A1, “Benzimidazole Pyridine Derivatives” (Hoffmann-La Roche Inc., priority 2022, published 2024).

Broadly, the IC50 is the concentration that inhibits the measured activity by half.

Chain of SIK1 (P57059 whole entry): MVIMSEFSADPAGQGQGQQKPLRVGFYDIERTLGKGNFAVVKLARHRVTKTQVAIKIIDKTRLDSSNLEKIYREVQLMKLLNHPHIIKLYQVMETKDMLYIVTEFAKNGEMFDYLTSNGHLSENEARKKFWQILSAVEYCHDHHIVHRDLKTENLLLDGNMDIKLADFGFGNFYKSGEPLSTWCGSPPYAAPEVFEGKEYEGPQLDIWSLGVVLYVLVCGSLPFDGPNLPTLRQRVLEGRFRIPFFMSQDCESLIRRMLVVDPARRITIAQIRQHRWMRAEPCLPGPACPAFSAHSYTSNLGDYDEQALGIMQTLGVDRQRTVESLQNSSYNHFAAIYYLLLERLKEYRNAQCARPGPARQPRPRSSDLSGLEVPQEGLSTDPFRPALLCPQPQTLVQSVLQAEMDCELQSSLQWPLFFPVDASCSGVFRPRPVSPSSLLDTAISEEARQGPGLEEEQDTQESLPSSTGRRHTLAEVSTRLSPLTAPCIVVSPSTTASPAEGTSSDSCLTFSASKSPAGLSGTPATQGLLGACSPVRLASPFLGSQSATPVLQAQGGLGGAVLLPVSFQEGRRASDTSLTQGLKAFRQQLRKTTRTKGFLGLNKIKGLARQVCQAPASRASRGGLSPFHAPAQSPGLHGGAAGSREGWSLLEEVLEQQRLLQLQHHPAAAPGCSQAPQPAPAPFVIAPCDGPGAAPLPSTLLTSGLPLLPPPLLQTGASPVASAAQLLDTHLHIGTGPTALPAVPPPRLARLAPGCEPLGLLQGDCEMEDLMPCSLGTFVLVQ
Chain of SIK2 (Q9H0K1 whole entry): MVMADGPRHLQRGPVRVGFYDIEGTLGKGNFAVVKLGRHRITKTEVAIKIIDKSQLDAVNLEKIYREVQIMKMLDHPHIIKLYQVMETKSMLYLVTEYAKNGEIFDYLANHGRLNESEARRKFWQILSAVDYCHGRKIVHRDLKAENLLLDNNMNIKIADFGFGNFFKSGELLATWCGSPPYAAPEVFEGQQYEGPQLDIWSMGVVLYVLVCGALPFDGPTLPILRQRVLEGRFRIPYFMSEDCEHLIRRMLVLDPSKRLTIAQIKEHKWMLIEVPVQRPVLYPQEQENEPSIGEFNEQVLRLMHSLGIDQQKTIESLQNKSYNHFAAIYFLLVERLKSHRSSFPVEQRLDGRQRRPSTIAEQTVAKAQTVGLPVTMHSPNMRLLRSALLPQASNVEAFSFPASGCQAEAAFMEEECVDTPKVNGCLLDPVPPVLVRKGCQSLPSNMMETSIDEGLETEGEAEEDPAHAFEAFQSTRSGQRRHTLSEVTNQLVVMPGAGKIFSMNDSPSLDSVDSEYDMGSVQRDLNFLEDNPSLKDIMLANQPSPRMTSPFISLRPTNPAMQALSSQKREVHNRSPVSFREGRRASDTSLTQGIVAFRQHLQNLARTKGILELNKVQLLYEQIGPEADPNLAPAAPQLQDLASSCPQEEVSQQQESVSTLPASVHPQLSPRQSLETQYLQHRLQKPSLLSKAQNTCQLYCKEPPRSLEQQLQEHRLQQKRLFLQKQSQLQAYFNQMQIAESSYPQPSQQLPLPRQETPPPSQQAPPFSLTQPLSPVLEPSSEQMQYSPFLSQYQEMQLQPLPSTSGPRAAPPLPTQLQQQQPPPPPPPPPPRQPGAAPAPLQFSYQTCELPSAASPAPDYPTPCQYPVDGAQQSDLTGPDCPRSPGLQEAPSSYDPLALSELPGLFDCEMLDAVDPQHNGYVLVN
Chain of SIK3 (Q9Y2K2 whole entry): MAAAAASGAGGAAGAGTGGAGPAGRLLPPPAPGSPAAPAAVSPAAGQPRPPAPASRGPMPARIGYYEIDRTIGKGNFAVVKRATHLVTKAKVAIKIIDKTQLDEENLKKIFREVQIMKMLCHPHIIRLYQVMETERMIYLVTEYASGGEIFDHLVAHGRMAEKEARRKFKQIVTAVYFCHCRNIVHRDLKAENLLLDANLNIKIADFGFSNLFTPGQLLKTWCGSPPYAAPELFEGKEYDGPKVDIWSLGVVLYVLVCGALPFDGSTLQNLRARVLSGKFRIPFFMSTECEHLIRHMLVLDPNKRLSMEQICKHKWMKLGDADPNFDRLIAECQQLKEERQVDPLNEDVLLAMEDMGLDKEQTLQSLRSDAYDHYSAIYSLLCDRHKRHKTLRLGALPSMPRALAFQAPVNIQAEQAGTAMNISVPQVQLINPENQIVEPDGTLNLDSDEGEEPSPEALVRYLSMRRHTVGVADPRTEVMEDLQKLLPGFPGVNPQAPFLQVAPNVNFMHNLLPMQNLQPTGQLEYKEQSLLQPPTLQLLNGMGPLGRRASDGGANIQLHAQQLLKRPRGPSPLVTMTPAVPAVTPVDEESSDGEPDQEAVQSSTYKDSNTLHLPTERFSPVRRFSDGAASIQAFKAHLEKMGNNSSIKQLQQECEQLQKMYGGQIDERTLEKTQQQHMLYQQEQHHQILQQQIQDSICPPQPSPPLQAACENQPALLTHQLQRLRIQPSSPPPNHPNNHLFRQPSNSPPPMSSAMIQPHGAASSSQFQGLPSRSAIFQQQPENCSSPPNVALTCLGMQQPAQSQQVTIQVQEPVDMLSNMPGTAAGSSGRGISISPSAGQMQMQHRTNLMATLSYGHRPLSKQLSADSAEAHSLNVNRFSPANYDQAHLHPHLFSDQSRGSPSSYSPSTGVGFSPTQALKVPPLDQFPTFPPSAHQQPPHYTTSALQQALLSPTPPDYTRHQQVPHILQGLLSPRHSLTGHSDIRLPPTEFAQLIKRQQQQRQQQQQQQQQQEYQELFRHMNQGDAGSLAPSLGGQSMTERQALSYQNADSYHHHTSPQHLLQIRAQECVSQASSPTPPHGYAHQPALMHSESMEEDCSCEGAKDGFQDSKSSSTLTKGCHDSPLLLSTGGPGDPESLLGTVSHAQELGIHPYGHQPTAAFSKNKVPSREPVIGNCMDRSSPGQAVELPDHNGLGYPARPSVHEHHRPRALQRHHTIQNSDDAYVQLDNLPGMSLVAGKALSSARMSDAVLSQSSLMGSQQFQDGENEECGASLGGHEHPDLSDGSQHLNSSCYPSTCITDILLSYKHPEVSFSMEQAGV

Consider `Cc1cc(C#N)nn1-c1nc(-n2cnc3cc(Nc4ccc(C(F)F)nn4)ccc32)ccc1C(C)O` (stereo not drawn) [Example 90, 1-[6-[5-[[6-(Difluoromethyl)pyridazin-3-yl]amino]benzimidazol-1-yl]-3-(1-hydroxyethyl)-2-pyridyl]-5-methyl-pyrazole-3-carbonitrile], for which the half-maximal inhibitory concentration (IC50) was 0.053 µM in assay [1], 0.0009 µM in assay [2] and 0.0005 µM in assay [3].
On the same counts, the results for `Cc1ccc(Nc2cc3ncn(-c4ccc(C(C)O)c(-n5nc(C#N)cc5C)n4)c3cc2F)nn1` (stereo not drawn) [Example 93, 1-[6-[6-Fluoro-5-[(6-methylpyridazin-3-yl)amino]benzimidazol-1-yl]-3-(1-hydroxyethyl)-2-pyridyl]-5-methyl-pyrazole-3-carbonitrile] are 0.097 µM, 0.0005 µM and 0.0006 µM.
On the same counts, the results for `Cc1ccc(Nc2cc3c(cc2F)ncn3-c2ccc(C(C)O)c(-n3nc(C#N)cc3C)n2)nn1` (stereo not drawn) [Example 94, 1-[6-[5-Fluoro-6-[(6-methylpyridazin-3-yl)amino]benzimidazol-1-yl]-3-(1-hydroxyethyl)-2-pyridyl]-5-methyl-pyrazole-3-carbonitrile] are 0.024 µM, 0.0166 µM and 0.0549 µM.
As for `Cc1ccc(Nc2ccc3c(c2)ncn3-c2ccc(C(C)O)c(-n3nc(C(F)(F)F)c4c3CCNC4)n2)nn1` (stereo not drawn) [Example 97, 1-[6-[5-[(6-Methylpyridazin-3-yl)amino]benzimidazol-1-yl]-2-[3-(trifluoromethyl)-4,5,6,7-tetrahydropyrazolo[4,3-c]pyridin-1-yl]-3-pyridyl]ethanol], the figures for the IC50 in assay [1], in assay [2] and in assay [3] were 0.007 µM, 0.0002 µM and 0.0005 µM, respectively.
Regarding `Cc1ccc(Nc2ccc3ncn(-c4ccc(C(C)O)c(-n5nc(C(F)(F)F)c6c5CCNC6)n4)c3c2)nn1` (stereo not drawn) [Example 98, 1-[6-[6-[(6-Methylpyridazin-3-yl)amino]benzimidazol-1-yl]-2-[3-(trifluoromethyl)-4,5,6,7-tetrahydropyrazolo[4,3-c]pyridin-1-yl]-3-pyridyl]ethanol], the IC50 is 0.005 µM in assay [1], 0.0042 µM in assay [2] and 0.0134 µM in assay [3].
For `Cc1nnc(Nc2ccc3c(c2)ncn3-c2ccc(C(C)O)c(-n3nc(C#N)cc3C)n2)o1` (stereo not drawn) [Example 103, 1-[3-(1-Hydroxyethyl)-6-[5-[(5-methyl-1,3,4-oxadiazol-2-yl)amino]benzimidazol-1-yl]-2-pyridyl]-5-methyl-pyrazole-3-carbonitrile] the same measures were 0.035 µM, 0.0288 µM and 0.0175 µM.
Regarding `Cc1ccc(Nc2ccc3c(c2)ncn3-c2ccc(C(C)O)c(-n3nc(C)cc3C#N)n2)nn1` (stereo not drawn) [Example 104, 2-[3-(1-Hydroxyethyl)-6-[5-[(6-methylpyridazin-3-yl)amino]benzimidazol-1-yl]-2-pyridyl]-5-methyl-pyrazole-3-carbonitrile], the values for the IC50 in assay [1], in assay [2] and in assay [3] were 0.616 µM, 0.0104 µM and 0.0026 µM, respectively.
On the same counts, the results for `Cc1ccc(Nc2ccc3c(c2)ncn3-c2ccc(C(C)O)c(N3CC[C@@H](C#N)C3)n2)nn1` (stereo partly drawn) [Example 105, (3R)-1-[3-(1-Hydroxyethyl)-6-[5-[(6-methylpyridazin-3-yl)amino]benzimidazol-1-yl]-2-pyridyl]pyrrolidine-3-carbonitrile] are 1.34 µM, 0.783 µM and 0.236 µM.
On the same counts, the results for `Cc1ccc(Nc2ccc3ncn(-c4ccc(C(C)O)c(N5CC[C@@H](C#N)C5)n4)c3c2)nn1` (stereo partly drawn) [Example 106, (3R)-1-[3-(1-Hydroxyethyl)-6-[6-[(6-methylpyridazin-3-yl)amino]benzimidazol-1-yl]-2-pyridyl]pyrrolidine-3-carbonitrile] are 0.869 µM, 0.0211 µM and 0.0025 µM.
With `Cc1ccc(Nc2ccc3ncn(-c4ccc(C(C)O)c(-n5nc(C)cc5C)n4)c3c2)nn1` (stereo not drawn) [Example 107, 1-[2-(3,5-Dimethylpyrazol-1-yl)-6-[6-[(6-methylpyridazin-3-yl)amino]benzimidazol-1-yl]-3-pyridyl]ethanol; formic acid], the IC50 in assay [1] was found to be 2.61 µM; in assay [2] it was 1.37 µM; in assay [3], 3.5 µM.
For `Cc1ccc(Nc2ccc3c(c2)ncn3-c2ccc(C(C)O)c(-n3nc(C)cc3C)n2)nn1` (stereo not drawn) [Example 108, 1-[2-(3,5-Dimethylpyrazol-1-yl)-6-[5-[(6-methylpyridazin-3-yl)amino]benzimidazol-1-yl]-3-pyridyl]ethanol; formic acid] the same measures were 3.82 µM, 0.0426 µM and 0.0064 µM.
On the same counts, the results for `Cc1nnc(Nc2ccc3c(c2)ncn3-c2ccc(C(C)O)c(-n3nc(C#N)cc3C)n2)s1` (stereo not drawn) [Example 111, 1-[3-(1-Hydroxyethyl)-6-[5-[(5-methyl-1,3,4-thiadiazol-2-yl)amino]benzimidazol-1-yl]-2-pyridyl]-5-methyl-pyrazole-3-carbonitrile] are 0.011 µM, 0.0014 µM and 0.0008 µM.
As for `Cc1cc(C#N)nn1-c1nc(-n2cnc3cc(OC4CCN(C5COC5)CC4)ccc32)ccc1C(C)O` (stereo not drawn) [Example 113, 1-[3-(1-Hydroxyethyl)-6-[5-[[1-(oxetan-3-yl)-4-piperidyl]oxy]benzimidazol-1-yl]-2-pyridyl]-5-methyl-pyrazole-3-carbonitrile], the IC50 is 0.319 µM in assay [1], 0.076 µM in assay [2] and 0.0341 µM in assay [3].
For `Cc1cc(C#N)nn1-c1nc(-n2cnc3ccc(OC4CCN(C5COC5)CC4)cc32)ccc1C(C)O` (stereo not drawn) [Example 114, 1-[3-(1-Hydroxyethyl)-6-[6-[[1-(oxetan-3-yl)-4-piperidyl]oxy]benzimidazol-1-yl]-2-pyridyl]-5-methyl-pyrazole-3-carbonitrile] the same measures were 0.049 µM, 0.047 µM and 0.606 µM.
For the compound `Cc1ccc(Nc2ccc3c(c2)ncn3-c2ccc(C(C)O)c(-n3ccc(C#N)n3)n2)nn1` (stereo not drawn) [Example 115, 1-[3-(1-Hydroxyethyl)-6-[5-[(6-methylpyridazin-3-yl)amino]benzimidazol-1-yl]-2-pyridyl]pyrazole-3-carbonitrile], the values for the IC50 in assay [1], in assay [2] and in assay [3] were 0.283 µM, 0.0039 µM and 0.0007 µM, respectively.
For `Cc1ccc(Nc2ccc3c(c2)ncn3-c2ccc(C(C)O)c(NCC3(C#N)CC3)n2)nn1` (stereo not drawn) [Example 116, 1-[[[3-(1-Hydroxyethyl)-6-[5-[(6-methylpyridazin-3-yl)amino]benzimidazol-1-yl]-2-pyridyl]amino]methyl]cyclopropanecarbonitrile; formic acid] the same measures were 1.61 µM, 0.0471 µM and 0.0096 µM.
On the same counts, the results for `Cc1ccc(Nc2ccc3ncn(-c4ccc(C(C)O)c(NCC5(C#N)CC5)n4)c3c2)nn1` (stereo not drawn) [Example 117, 1-[[[3-(1-Hydroxyethyl)-6-[6-[(6-methylpyridazin-3-yl)amino]benzimidazol-1-yl]-2-pyridyl]amino]methyl]cyclopropanecarbonitrile; formic acid] are 3.53 µM, 1.02 µM and 0.365 µM.
On the same counts, the results for `Cc1ccc(Nc2ccc3c(c2)ncn3-c2ccc(C(C)O)c(-c3cncc(C#N)c3)n2)nn1` (stereo not drawn) [Example 118, 5-[3-(1-Hydroxyethyl)-6-[5-[(6-methylpyridazin-3-yl)amino]benzimidazol-1-yl]-2-pyridyl]pyridine-3-carbonitrile; formic acid] are 2.77 µM, 0.0364 µM and 0.0071 µM.
For the compound `Cc1cc(C#N)nn1-c1nc(-n2cnc3cc(Nc4nccnn4)ccc32)ccc1C(C)O` (stereo not drawn) [Example 119, 1-[3-(1-Hydroxyethyl)-6-[5-(1,2,4-triazin-3-ylamino)benzimidazol-1-yl]-2-pyridyl]-5-methyl-pyrazole-3-carbonitrile], the IC50 in assay [1] worked out at 0.012 µM; in assay [2], 0.0018 µM; in assay [3], 0.0016 µM.
For `Cc1ccc(Nc2ccc3ncn(-c4ccc(C(C)O)c(N5CCC(C)(C#N)C5)n4)c3c2)nn1` (stereo not drawn) [Example 120, 1-[3-(1-Hydroxyethyl)-6-[6-[(6-methylpyridazin-3-yl)amino]benzimidazol-1-yl]-2-pyridyl]-3-methyl-pyrrolidine-3-carbonitrile] the same measures were 2.21 µM, 1.31 µM and 0.307 µM.
On the same counts, the results for `Cc1ccc(Nc2ccc3c(c2)ncn3-c2ccc(C(C)O)c(N3CCC(C)(C#N)C3)n2)nn1` (stereo not drawn) [Example 121, 1-[3-(1-Hydroxyethyl)-6-[5-[(6-methylpyridazin-3-yl)amino]benzimidazol-1-yl]-2-pyridyl]-3-methyl-pyrrolidine-3-carbonitrile] are 1.2 µM, 0.0224 µM and 0.0036 µM.
On the same counts, the results for `Cc1ccc(Nc2ccc3c(c2)ncn3-c2ccc(C(C)O)c(-c3cc(C(F)(F)F)nn3C)n2)nn1` (stereo not drawn) [Example 122, 1-[6-[5-[(6-Methylpyridazin-3-yl)amino]benzimidazol-1-yl]-2-[2-methyl-5-(trifluoromethyl)pyrazol-3-yl]-3-pyridyl]ethanol] are 3.46 µM, 0.033 µM and 0.0069 µM.
For `Cc1cc(C#N)nn1-c1nc(-n2cnc3cc(Nc4ccon4)ccc32)ccc1C(C)O` (stereo not drawn) [Example 123, 1-[3-(1-Hydroxyethyl)-6-[5-(isoxazol-3-ylamino)benzimidazol-1-yl]-2-pyridyl]-5-methyl-pyrazole-3-carbonitrile], the values for the IC50 in assay [1], in assay [2] and in assay [3] were 0.013 µM, 0.0099 µM and 0.0059 µM, respectively.
